Test results as given in PMC5869189 (Frontiers in Immunology, 2018).

Tested on: PBMC from healthy, seropositive donors
Assay type: cell-based, human

Row | Sequence | % Responders [%] | Median SFC/10^6 PBMCs (IFN-g)
1 | AALPDALAFARACAMRFGRL [BPSS1599_P26] | 89.6 | 164
2 | AAQKAIDAAKSQVANDNAVA [BPSS1531_P40] | 85.7 | 198
3 | AATAVMAASASAQSVPASRQ [BPSL2522_P2] | 88.6 | 273
4 | AELAARPEYRELQPYARQQA [BPSS1525_P20] | 92.3 | 216
5 | AGAILGAVVTGVALVAAAFV [BPSS1532_P44] | 100.0 | 156
6 | AGTVMNVGNQVSQAAGGIVV [BPSS1532_P54] | 80.6 | 189
7 | AHLVLRSLIDELQSTLRVRL [BPSS0530_P21] | 93.0 | 258
8 | AHNQTLSQNRAQSVVNALAQ [BPSL0999_P16] | 85.1 | 350
9 | AIFSEAKDRFCMDPATRAGN [BPSS1525_P13] | 92.3 | 200
10 | ALPDGRWAYFAVRDHAFMPN [BPSS1599_P11] | 95.8 | 148
11 | ALPIARVAGRNASRTVSLDP [BPSS0530_P18] | 100.0 | 249
12 | APDRRVEVEVVGTQEVQKTT [BPSL2522_P21] | 100.0 | 273
13 | APGGWRLERYECTPGTAHYA [BPSS1599_P28] | 87.5 | 163
14 | APGTPRRLTIETGQLVTRLC [BPSS0530_P15] | 93.0 | 255
15 | ASPTWRAYRLNANLGGIAPP [BPSS1599_P39] | 87.5 | 143
16 | ASTSAQRVLSTGGGVADLIE [BPSS0530_P23] | 90.7 | 267
17 | ATFIVDPDNTIQHVSVNNLN [BPSL2096_P14] | 91.2 | 344
18 | AVNDNWVNGTGEWVWMNGTN [BPSL2522_P4] | 91.4 | 368
19 | AVRDHAFMPNGDWVGSREEA [BPSS1599_P12] | 97.9 | 178
20 | AWAERFDRYLDDADALVASA [BPSL2504_P8] | 91.4 | 317

Row | Sequence | % Responders [%] | Median SFC/10^6 PBMCs (IFN-g)
21 | AWRREHKDLDKLNHYSFGDV [BPSL2096_P10] | 88.2 | 351
22 | CIGKIVGWVITAVSFAAAAF [BPSS1532_P35] | 87.1 | 172
23 | CLALQAARTGGPEMAFGDVE [BPSS0530_P11] | 97.7 | 256
24 | CMDPATRAGNVRPAFIEALG [BPSS1525_P14] | 82.1 | 200
25 | DAAAKLERLLPEQGPRAPLA [BPSS1599_P36] | 89.6 | 143
26 | DAARATGLPGADKQGVFTPS [BPSS1525_P16] | 82.1 | 197
27 | DLDQDGLGLGRLGLRHARGV [BPSS0530_P6] | 90.7 | 288
28 | DNATEAGRAQNRRVEIYLRA [BPSL0999_P20] | 93.6 | 353
29 | DPLPPAMLYHELVGLLGRLS [BPSS0530_P27] | 86.0 | 239
30 | DQYAITPAFTPLLNDLATTL [BPSL0999_P12] | 83.0 | 358
31 | DRELGYDHDDLQTSFEPLAM [BPSS0530_P30] | 88.4 | 310
32 | DRGDQVHICIVDKQWNLKKL [BPSS0530_P34] | 86.0 | 299
33 | DTDGERATLDVPLTAPTAND [BPSS1599_P32] | 87.5 | 148
34 | EAEEREAALERVRAELAARQ [BPSS1599_P23] | 91.7 | 147
35 | EAVELAKKLKFDLMVLRIDR [BPSS1599_P4] | 85.4 | 137
36 | ECTPGTAHYAWARNGSNVRY [BPSS1599_P29] | 97.9 | 162
37 | EFVRAIDVPGLRVERIAYQN [BPSS1599_P41] | 87.5 | 135
38 | EKLRQLLPQQTKLGAVEQIQ [BPSS0530_P37] | 83.7 | 222
39 | ELCWRDAFWTPATANAKCDG [BPSL2522_P6] | 91.4 | 291
40 | ELERQGFQNFQPKRLDDLLP [BPSS1599_P16] | 83.3 | 142

Row | Sequence | % Responders [%] | Median SFC/10^6 PBMCs (IFN-g)
41 | ELQSTLRVRLASTSAQRVLS [BPSS0530_P22] | 88.4 | 247
42 | ELVGLLGRLSVLPGVDEELA [BPSS0530_P28] | 88.4 | 260
43 | ETGQLVTRLCWKSQLRSDEV [BPSS0530_P16] | 81.4 | 266
44 | ETPVLPLRFEDRGDQVHICI [BPSS0530_P33] | 86.0 | 233
45 | EVPDLAVGLDAPGTPRRLTI [BPSS0530_P14] | 95.3 | 279
46 | FAYWHHRAKVEAEEREAALE [BPSS1599_P22] | 95.8 | 169
47 | FDLMVLRIDRGVAAAGYANT [BPSS1599_P5] | 89.6 | 129
48 | FETVTEASFPGKWKIIYFYP [BPSL2096_P4] | 88.2 | 305
49 | FEVESTDPFWKQTLAGSAMA [BPSS0530_P42] | 83.7 | 237
50 | FSKIGETLGQLFRHRAPDSA [BPSS1525_P5] | 89.7 | 178
51 | FTVVAAKPGFNNHEENGQSA [BPSL2096_P2] | 88.2 | 323
52 | GAAQMTAAIAGGALQATTSL [BPSS1531_P21] | 97.1 | 225
53 | GAGIGALAGGGKGAAIGAGV [BPSL0999_P5] | 80.9 | 346
54 | GALGGLLAFRSQTLDPAQAQ [BPSL0280_P29] | 93.1 | 463
55 | GALVGGVTGYNWQAIKNKLA [BPSL0999_P7] | 80.9 | 322
56 | GDWVGSREEALERLHTDYAW [BPSS1599_P13] | 95.8 | 182
57 | GGERMSDEHASVLAQEAPAR [BPSS1531_P30] | 91.4 | 213
58 | GGWNVVIGEPELERQGFQNF [BPSS1599_P15] | 87.5 | 179
59 | GKGAAIGAGVGALVGGVTGY [BPSL0999_P6] | 91.5 | 357
60 | GPEMAFGDVELASRYRAVST [BPSS0530_P12] | 97.7 | 308
